We go through 19 molecules from patent US20240246967A1, “AXL COMPOUNDS” (ARCUS BIOSCIENCES, INC., priority 2021, published 2024).

Each structure is given as a SMILES string.

For the assay, the target named is T1, human TYRO3 (Homo sapiens, UniProt Q06418).
T1 construct: purchased Invitrogen
T1 sequence (Q06418 41-890): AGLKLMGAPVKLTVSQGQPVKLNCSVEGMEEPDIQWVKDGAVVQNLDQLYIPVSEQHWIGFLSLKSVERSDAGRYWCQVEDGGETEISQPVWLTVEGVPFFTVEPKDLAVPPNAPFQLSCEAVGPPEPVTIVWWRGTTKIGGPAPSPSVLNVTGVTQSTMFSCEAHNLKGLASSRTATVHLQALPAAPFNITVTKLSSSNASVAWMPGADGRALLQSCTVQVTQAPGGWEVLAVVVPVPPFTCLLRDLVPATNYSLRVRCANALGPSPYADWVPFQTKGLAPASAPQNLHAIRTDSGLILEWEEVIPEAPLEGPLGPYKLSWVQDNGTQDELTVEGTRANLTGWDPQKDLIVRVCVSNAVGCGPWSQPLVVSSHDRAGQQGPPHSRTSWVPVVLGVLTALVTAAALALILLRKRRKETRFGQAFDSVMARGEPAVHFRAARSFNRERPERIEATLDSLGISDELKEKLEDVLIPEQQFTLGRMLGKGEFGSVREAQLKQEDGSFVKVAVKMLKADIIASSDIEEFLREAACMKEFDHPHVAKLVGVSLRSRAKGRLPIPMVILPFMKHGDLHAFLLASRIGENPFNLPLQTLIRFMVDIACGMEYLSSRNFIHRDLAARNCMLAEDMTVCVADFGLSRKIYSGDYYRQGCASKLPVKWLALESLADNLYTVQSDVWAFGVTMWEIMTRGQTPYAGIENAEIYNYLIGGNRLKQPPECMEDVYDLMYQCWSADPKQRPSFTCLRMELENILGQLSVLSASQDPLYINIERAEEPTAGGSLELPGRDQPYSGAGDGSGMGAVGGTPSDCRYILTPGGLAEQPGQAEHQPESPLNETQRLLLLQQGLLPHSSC
Kind of assay: HTRF KinEASE-TK biochemical potency assay, TYRO3. To be noted: 1 nM TYRO3, 700 μM ATP, 800 nM TK Substrate-biotin. The method, then: Purified recombinant human AXL, TYRO3 and MER proteins were purchased from Invitrogen™. 10 nM AXL, 2 nM TYRO3 or MER were incubated with varying concentrations of compounds in 50 mM HEPES, pH 7.4, 10 mM MgCl2, 0.01% BSA, 1 mM DTT and 2% DMSO in a total volume of 20 μl in a 384-well microplate (Corning™ #3640) at RT for 1 h. The AXL, TYRO3 and MER enzymatic reaction was initiated by transferring 10 μl of enzyme and compound mixture into 10 μl of 1.6 μM TK Substrate-biotin (HTRF® KinEASE-TK kit, Cisbio) and 1400 μM ATP pre-incubated in 50 mM HEPES, pH 7.4, 10 mM MgCl2, 0.01% BSA, 1 mM DTT in a 384-well microplate (Corning™ #3640) at RT, giving the final reaction conditions: 5 nM AXL, 1 nM TYRO3 or MER, 800 nM TK Substrate-biotin and 700 μM ATP in 50 mM HEPES, pH 7.4, 10 mM MgCl2, 0.01% BSA, 1 mM DTT and 1% DMSO with varying concentrations of compounds. Following 2 h incubation at RT, the AXL, TYRO3 and MER enzymatic reaction was stopped by transfer of 10 μl of reaction into 10 μl of detection mix (400 nM Streptavidin-XL665, 200-fold dilution TK Antibody-Cryptate and detection buffer, HTRF® KinEASE-TK kit, Cisbio) in a white 384-well microplate (Perkin Elmer, OptiPlate 384). After 1 h incubation at RT, the plate was put into a plate reader (Evision) to read at 665/620 nm (acceptor/donor) for HTRF. The value of the DMSO blank (MIN inhibition=100% activity) was used as a negative control. The positive control was established by adding 5 μl of enzyme and DMSO mixture into 10 μl of detection mix followed by addition of 5 μl of TK Substrate-biotin and ATP mixture (MAX inhibition=0% activity). To calculate the percent activity, Equation 1 was used. Ratio 665/620 is the value at a given compound concentration: […]
Background: Time-resolved FRET reads energy transfer from a long-lived donor to a nearby acceptor.
With `C[C@@H]1CCCN1C1(C)CCc2ccc(-c3cnc4[nH]nc(-c5ccc(N6CCOCC6)cc5)c4c3)cc2CC1` (stereo partly drawn) [Example 107, 4-[4-(5-{7-Methyl-7-[(2R)-2-methylpyrrolidin-1-yl]-6,7,8,9-tetrahydro-5H-benzo[7]annulen-2-yl}-1H-pyrazolo[3,4-b]pyridin-3-yl)phenyl]morpholine], the IC50 (commonly the concentration needed to halve the response being measured) lay in the range of 100 to 1000 nM. Next, `CCC1(N2CCC[C@H]2C)CCc2ccc(-c3cnc4[nH]nc(-c5ccc(S(=O)(=O)C6CC6)cc5)c4c3)cc2CC1` (stereo partly drawn) [Example 6, (2R)-1-(2-{3-[4-(Cyclopropanesulfonyl)phenyl]-1H-pyrazolo[3,4-b]pyridin-5-yl}-7-ethyl-6,7,8,9-tetrahydro-5H-benzo[7]annulen-7-yl)-2-methylpyrrolidine]: 100 to 1000 nM. Next, `CC1(N2CCc3ccc(-c4cnc5[nH]nc(-c6ccc(S(=O)(=O)C7CC7)cc6)c5c4)cc3CC2)CCCC1` [Example 120, 7-{3-[4-(Cyclopropanesulfonyl)phenyl]-1H-pyrazolo[3,4-b]pyridin-5-yl}-3-(1-methylcyclopentyl)-2,3,4,5-tetrahydro-1H-3-benzazepine]: 100 to 1000 nM; `C[C@@H]1CCCN1C1(C)CCc2ccc(-c3cnc4[nH]nc(-c5ccc(S(=O)(=O)N6CCC6)cc5)c4c3)cc2CC1` (stereo partly drawn) [Example 104, (2R)-1-(2-{3-[4-(Azetidine-1-sulfonyl)phenyl]-1H-pyrazolo[3,4-b]pyridin-5-yl}-7-methyl-6,7,8,9-tetrahydro-5H-benzo[7]annulen-7-yl)-2-methylpyrrolidine]: less than 100 nM. Next, `CC1(N2CCC2)CCc2ccc(-c3cnc4[nH]nc(-c5ccc(S(=O)(=O)C6CC6)cc5)c4c3)cc2CC1` (stereo not shown) [Example 7, 1-(2-{3-[4-(Cyclopropanesulfonyl)phenyl]-1H-pyrazolo[3,4-b]pyridin-5-yl}-7-methyl-6,7,8,9-tetrahydro-5H-benzo[7]annulen-7-yl)azetidine]: 100 to 1000 nM; `C[C@@H]1CCCN1C1(C)CCc2ccc(-c3cnc4[nH]nc(-c5ccc(C(C)(C)O)c(Cl)c5)c4c3)cc2CC1` (stereo partly drawn) [Example 57, 2-[2-Chloro-4-(5-{7-methyl-7-[(2R)-2-methylpyrrolidin-1-yl]-6,7,8,9-tetrahydro-5H-benzo[7]annulen-2-yl}-1H-pyrazolo[3,4-b]pyridin-3-yl)phenyl]propan-2-ol]: 100 to 1000 nM; `Cc1cc(-c2n[nH]c3ncc(-c4ccc5c(c4)CCC(N4CCCC4)CC5)cc23)ccc1C(=O)N1CCNCC1` (stereo not shown) [Example 47, 1-(2-Methyl-4-{5-[7-(pyrrolidin-1-yl)-6,7,8,9-tetrahydro-5H-benzo[7]annulen-2-yl]-1H-pyrazolo[3,4-b]pyridin-3-yl}benzoyl)piperazine]: less than 100 nM.

Regarding `CC(C)(O)c1ccc(-c2n[nH]c3ncc(-c4ccc5c(c4)CCN(C4CCCC4)CC5)cc23)cc1C(F)(F)F` [Example 16, 2-{4-[5-(3-Cyclopentyl-2,3,4,5-tetrahydro-1H-3-benzazepin-7-yl)-1H-pyrazolo[3,4-b]pyridin-3-yl]-2-(trifluoromethyl)phenyl}propan-2-ol], the IC50 is 100 to 1000 nM. Next, `COCCN1CCc2ccc(-c3cnc4[nH]nc(-c5ccc(C(C)(C)O)c(Cl)c5)c4c3)cc2CC1` [Example 34, 2-(2-Chloro-4-(5-(3-(2-methoxyethyl)-2,3,4,5-tetrahydro-1H-benzo[d]azepin-7-yl)-1H-pyrazolo[3,4-b]pyridin-3-yl)phenyl)propan-2-ol]: 100 to 1000 nM; `CC(C)(O)c1ccc(-c2n[nH]c3ncc(-c4ccc5c(n4)CCC(N4CCCC4)CC5)cc23)cc1Cl` (stereo not shown) [Example 60, 2-(2-Chloro-4-{5-[7-(pyrrolidin-1-yl)-5H,6H,7H,8H,9H-cyclohepta[b]pyridin-2-yl]-1H-pyrazolo[3,4-b]pyridin-3-yl}phenyl)propan-2-ol]: 100 to 1000 nM; `CS(=O)(=O)c1ccc(-c2n[nH]c3ncc(-c4ccc5c(c4)CCN(C4CCCC4)CC5)cc23)cc1F` [Example 32, 3-Cyclopentyl-7-(3-(3-fluoro-4-(methylsulfonyl)phenyl)-1H-pyrazolo[3,4-b]pyridin-5-yl)-2,3,4,5-tetrahydro-1H-benzo[d]azepine]: 100 to 1000 nM. Next, `Cc1cc(-c2n[nH]c3ncc(-c4ccc5c(c4)CCN(C(=O)C(C)C)CC5)cc23)ccc1C(=O)N1CCNCC1` [Example 48, 2-Methyl-1-(7-{3-[3-methyl-4-(piperazine-1-carbonyl)phenyl]-1H-pyrazolo[3,4-b]pyridin-5-yl}-2,3,4,5-tetrahydro-1H-3-benzazepin-3-yl)propan-1-one]: 100 to 1000 nM; `CS(=O)(=O)c1ccc(-c2n[nH]c3ncc(-c4ccc5c(c4)CCN(C4CCCC4)CC5)cc23)cc1Cl` [Example 31, 7-(3-(3-Chloro-4-(methylsulfonyl)phenyl)-1H-pyrazolo[3,4-b]pyridin-5-yl)-3-cyclopentyl-2,3,4,5-tetrahydro-1H-benzo[d]azepine]: less than 100 nM. The molecule `COc1cc(-c2n[nH]c3ncc(-c4ccc5c(c4)CCC(C)(N4CCC[C@H]4C)CC5)cc23)ccc1OC[C@H]1COCCO1` (stereo partly drawn) [Example 114, (2R)-1-{2-[3-(4-{[(2R)-1,4-Dioxan-2-yl]methoxy}-3-methoxyphenyl)-1H-pyrazolo[3,4-b]pyridin-5-yl]-7-methyl-6,7,8,9-tetrahydro-5H-benzo[7]annulen-7-yl}-2-methylpyrrolidine] returned an IC50 of 100 to 1000 nM. Molecule `CC(C)(O)c1ccc(-c2n[nH]c3ncc(-c4cc5c(cn4)CCC(N4CCCC4)CC5)cc23)cc1Cl` (stereo not shown) [Example 59, 2-(2-Chloro-4-{5-[7-(pyrrolidin-1-yl)-5H,6H,7H,8H,9H-cyclohepta[c]pyridin-3-yl]-1H-pyrazolo[3,4-b]pyridin-3-yl}phenyl)propan-2-ol] registered an IC50 of less than 100 nM. Next, `C[C@H]1CCCN1C1(C)CCc2ccc(-c3cnc4[nH]nc(-c5ccc(S(=O)(=O)C6CC6)cc5)c4c3)cc2CC1` (stereo partly drawn) [Example 5, (2S)-1-(2-{3-[4-(Cyclopropanesulfonyl)phenyl]-1H-pyrazolo[3,4-b]pyridin-5-yl}-7-methyl-6,7,8,9-tetrahydro-5H-benzo[7]annulen-7-yl)-2-methylpyrrolidine]: less than 100 nM.

Consider `C[C@H]1CCCN1C1CCc2ccc(-c3cnc4[nH]nc(-c5ccc(S(C)(=O)=O)cc5)c4c3)cc2CC1` (stereo partly drawn) [Example 36, 5-(7-((S)-2-Methylpyrrolidin-1-yl)-6,7,8,9-tetrahydro-5H-benzo[7]annulen-2-yl)-3-(4-(methylsulfonyl)phenyl)-1H-pyrazolo[3,4-b]pyridine], for which the half-maximal inhibitory concentration (IC50) is less than 100 nM.

Take `C[C@@H]1CCCN1C1(C)CCc2ccc(-c3cnc4[nH]nc(-c5ccc(C(N)=O)cc5)c4c3)cc2CC1` (stereo partly drawn) [Example 54, 4-(5-(7-Methyl-7-((R)-2-methylpyrrolidin-1-yl)-6,7,8,9-tetrahydro-5H-benzo[7]annulen-2-yl)-1H-pyrazolo[3,4-b]pyridin-3-yl)benzamide]: the IC50 was less than 100 nM. For the molecule `O=C([C@@H]1CCCN1)N1CCc2ccc(-c3cnc4[nH]nc(-c5ccc(S(=O)(=O)C6CC6)cc5)c4c3)cc2CC1` [Example 112, 7-{3-[4-(Cyclopropanesulfonyl)phenyl]-1H-pyrazolo[3,4-b]pyridin-5-yl}-3-[(2S)-pyrrolidine-2-carbonyl]-2,3,4,5-tetrahydro-1H-3-benzazepine], the half-maximal inhibitory concentration (IC50) fell in the range of 100 to 1000 nM.
